Measurements published in the NIST ThermoML archive (doi:10.1016/j.fluid.2013.07.010).
Numbers after ± are expanded uncertainties.

How the values were obtained:
[1] = Crystal; DTA
[2] = Molar enthalpy of transition or fusion; conditions: Crystal; DSC

Nc1ccc(Oc2ccc(N)cc2)cc1 [4,4'-diaminodiphenyl ether]
Normal melting temperature [1]: 189.52 ± 0.39 °C
Molar enthalpy of transition or fusion [2]: 9.05 ± 0.406 kcal/mol
